Measurements published in patent US20220315624A1, “THIOSTREPTON ANALOGS AND METHODS OF MAKING AND USING SAME” (YALE UNIVERSITY, priority 2019, published 2022).
Converted amounts (≈) assume the structure as drawn. Like-named read-outs stand apart in the source and are kept apart here.

Tests used:
[1] = test system: E. faecalis and E. faecium; assay: MIC broth microdilution, summary over enterococci; type: cell-based; details: for MIC: read-out: MIC values against E. faecalis and E. faecium
Procedure: (§1) Twenty-four test agents were shipped to Micromyx and stored at −20° C. until assayed. The compounds were dissolved in 100% DMSO at 6.46 mg/mL prior to testing. Comparator drugs were supplied by Micromyx and were handled as described below:
(§2) The test organisms for the assay were recent clinical isolates or reference strains acquired from the American Type Culture Collection (ATCC; Manassas, Va.). Upon receipt, the isolates were streaked onto Trypticase Soy Agar II+5% sheep blood (TSAB). Colonies were harvested from the plates and a cell suspension was prepared in Trypticase Soy Broth containing cryoprotectant. Aliquots were then frozen at −80° C. Prior to the assay, the frozen seeds of all bacterial isolates to be tested were thawed and streaked for isolation onto TSAB (BD/BBL, Sparks, Md.; Lot No. 9011894), and were incubated overnight at 35° C.
(§3) The test medium for all isolates was cation-adjusted Mueller Hinton broth (CAMHB; BD/BBL; Lot No. 8190586). CAMHB (Cation Adjusted Mueller Hinton Broth) was supplemented with 3% (v/v) lysed horse blood (LHB; Hemostat, Dixon, Calif.; Lot No. 474990) for the testing of streptococci.
(§4) MIC values were determined using a broth microdilution method as recommended by CLSI. Automated liquid handlers (Multidrop 384, Labsystems, Helsinki, Finland; Biomek 2000 and Biomek F/X, Beckman Coulter, Fullerton Calif.) were used to conduct serial dilutions and make liquid transfers.
(§5) The wells of standard 96-well microdilution plates (Costar 3795, Corning Inc., Corning, N.Y.) were filled with 150 μL of the appropriate diluent in columns 2-12 on the Multidrop 384 (DMSO for the thiostrepton analogs, deionized H2O for vancomycin and ceftazidime). These plates were used to prepare the drug “mother plate” which provided the serial drug dilutions for the replicate “daughter plates”. The compounds (300 μL) were dispensed at 101× the highest concentration to be tested into the appropriate row of the “mother plate”. The Biomek 2000 was used to transfer 150 μL of each stock solution from the wells in Column 1 of the mother plate to make ten subsequent 2-fold serial dilutions. The wells of Column 12 contained no drug and served as the organism growth control wells. The daughter plates were loaded with 190 μL of test medium using the Multidrop 384.
(§6) The daughter plates were prepared on the Biomek F/X instrument which transferred […] of drug solution from each well of the mother plate to each corresponding well of each daughter plate in a single step. The wells of the daughter plates ultimately contained 190 μL of media, 2 μL of drug solution, and 10 μL of inoculum prepared as described below. The final concentration of DMSO (if used as a solvent) in the test well was 1%.
(§7) A standardized inoculum of each organism was prepared per CLSI methods. A suspension of organisms from a fresh plate was prepared in CAMHB to equal the turbidity of a 0.5 McFarland standard. The suspensions were diluted 1:20 in CAMHB, or in the case of streptococci CAMHB with LHB. The inoculum for each organism was dispensed into sterile reservoirs divided by length (Beckman Coulter), and the Biomek 2000 was used to inoculate the plates. Daughter plates were placed on the Biomek 2000 work surface reversed so that inoculation took place from low to high drug concentration. The Biomek 2000 delivered 10 μL of standardized inoculum into each well. These dilutions yielded a final cell concentration in the daughter plates of approximately 5.0×10^5 CFU/mL.
(§8) Plates were stacked 3 high, covered with a lid on the top plate, placed in plastic bags, and incubated at 35° C. for 16-20 hr for all organisms except streptococci which were incubated for 20-24 hr. Following incubation, the microplates were removed from the incubator and viewed from the bottom using a plate viewer. The MIC was read and recorded as the lowest concentration of drug that inhibited visible growth of the organism. […]

Gram-positive cocci = assay: MIC broth microdilution, overall summary; type: cell-based; details: summary of MIC testing
Procedure: as §1, §2, §3, §4, §5
The daughter plates were prepared on the Biomek F/X instrument which transferred […] of drug solution from each well of the mother plate to each corresponding well of each daughter plate in a single step. […]
(§9) Plates were stacked 3 high, covered with a lid on the top plate, placed in plastic bags, and incubated at 35° C. for 16-20 hr for all organisms except streptococci which were incubated for 20-24 hr. […] The MIC was read and recorded as the lowest concentration of drug that inhibited visible growth of the organism. […]

[2] = Un-inoculated solubility control plate (drug precipitation); type: physicochemical; details: for Precipitation in CAMHB: at 64 μg/mL in CAMHB; for Precipitation in CAMHB in LHB: at 64 μg/mL in CAMHB in LHB
S. aureus isolates = assay: MIC broth microdilution, S. aureus isolates; type: cell-based; details: for MIC: Staphylococcus aureus, read-out: MIC values against S. aureus isolates
Procedure: as §1, §2, §3, §4, §5, §6, §7, §8

[3] = Aqueous solubility analysis in MOPS buffer; type: physicochemical; details: after 24 hours in 10 mM aqueous MOPS buffer; for solubility at 24 h: aqueous 10 mM MOPS buffer, thermodynamic from solid, pH 7.2
Procedure: A 2 dram vial was loaded with ˜0.5 mg of a thiostrepton derivative and suspended in ˜4 mL of aqueous 10 mM MOPS buffer (pKa 7.2). The suspension was stirred vigorously for 24 h to ensure equilibration, then filtered through a […] centrifuge filtration unit. A 3.0 mL aliquot was concentrated, and the dried residue was diluted with 0.30 mL of 1:1 1,4-dioxane/H2O (10× original concentration necessitated by detection limits). The total UV absorbance (200-300 nm) was measured in triplicate by UPLC runs with a photodiode array detector. A calibration curve for each compound was created using data points from 3 trials each of concentrations in 1:1 1,4-dioxane/H2O ranging from […]. These concentrations were plotted against their respective average absorbances. The experimental concentration of each compound was calculated by dividing the found μg/mL value by the residue concentration factor of 10 to yield the actual solubility value.

E. faecium MMX 485 VRE = assay: MIC broth microdilution; type: cell-based; details: Enterococcus faecium
Procedure: as §1, §2, §3, §4, §5, §6, §7, §8

[4] = test system: S. aureus ATCC 29213 MSSA; assay: MIC broth microdilution; type: cell-based; details: Staphylococcus aureus
Procedure: as §1, §2, §3, §4, §5, §6, §7, §8

[5] = test system: S. pneumoniae ATCC 49619 PISP; assay: MIC broth microdilution; type: cell-based; details: Streptococcus pneumoniae, ATCC49619, 20 h
Procedure: as §1, §2, §3, §4, §5, §6, §7, §8

E. faecium MMX 708 VSE = assay: MIC broth microdilution; type: cell-based; details: Enterococcus faecium, MMX708VSE
Procedure: as §1, §2, §3, §4, §5, §6, §7, §8

S. pyogenes ATCC 19615 = assay: MIC broth microdilution; type: cell-based; details: Streptococcus pyogenes, ATCC19615, 20 h
Procedure: as §1, §2, §3, §4, §5, §6, §7, §8

S. aureus MMX 8088 MRSA = assay: MIC broth microdilution; type: cell-based; details: Staphylococcus aureus
Procedure: as §1, §2, §3, §4, §5, §6, §7, §8

E. faecalis MMX 486 VRE = assay: MIC broth microdilution; type: cell-based; details: Enterococcus faecalis
Procedure: as §1, §2, §3, §4, §5, §6, §7, §8

E. coli ATCC 25922 = assay: MIC broth microdilution; type: cell-based
Procedure: as §1, §2, §3, §4, §5, §6, §7, §8

[6] = test system: E. faecalis ATCC 29212 VSE; assay: MIC broth microdilution; type: cell-based; details: Enterococcus faecalis, ATCC29212
Procedure: as §1, §2, §3, §4, §5, §6, §7, §8

[7] = test system: S. pneumoniae and S. pyogenes isolates; assay: MIC broth microdilution, summary over streptococci; type: cell-based; details: read-out: MIC values against S. pneumoniae and S. pyogenes isolates
Procedure: as §1, §2
The test medium for all isolates was cation-adjusted Mueller Hinton broth (CAMHB; BD/BBL; Lot No. 8190586). […]
MIC values were determined using a broth microdilution method as recommended by CLSI. […]
as §9

[8] = across the evaluated enterococci, VSE and VRE
[9] = E. faecium MMX 485 VRE, CAMHB, read-out: MIC
[10] = S. aureus ATCC 29213 MSSA, CAMHB, read-out: MIC
[11] = S. pneumoniae ATCC 49619 PISP, CAMHB with 3% lysed horse blood, read-out: MIC
[12] = E. faecium MMX 708 VSE, CAMHB, read-out: MIC
[13] = S. pyogenes ATCC 19615, CAMHB with 3% lysed horse blood, read-out: MIC
[14] = S. aureus MMX 8088 MRSA, CAMHB, read-out: MIC
[15] = E. faecalis MMX 486 VRE, CAMHB, read-out: MIC
[16] = Escherichia coli, ATCC25922, E. coli ATCC 25922, CAMHB, read-out: MIC
[17] = E. faecalis ATCC 29212 VSE, CAMHB, read-out: MIC

Row | Structure (SMILES) | MIC [1, 8] [µg/mL] | Activity among the evaluated analogs / against evaluated Gram-positive cocci (summary in words) (Gram-positive cocci) | Precipitation in CAMHB [2] | MIC (S. aureus isolates; across MSSA and MRSA isolates) [µg/mL] | solubility at 24 h [3] [µg/mL] | MIC (E. faecium MMX 485 VRE; [9]) [µg/mL] | MIC [4, 10] [µg/mL] | MIC [5, 11] [µg/mL] | MIC (E. faecium MMX 708 VSE; [12]) [µg/mL] | MIC (S. pyogenes ATCC 19615; [13]) [µg/mL] | MIC (S. aureus MMX 8088 MRSA; [14]) [µg/mL] | MIC (E. faecalis MMX 486 VRE; [15]) [µg/mL] | MIC (E. coli ATCC 25922; [16]) [µg/mL] | MIC [6, 17] [µg/mL] | Precipitation in CAMHB in LHB [2] | further results
1 | C=C(NC(=O)c1csc(C2=N[C@@H]3c4csc(n4)[C@H]4NC(=O)c5csc(n5)[C@H]([C@](C)(O)[C@@H](C)O)NC(=O)C5CSC(=N5)/C(=C/C)NC(=O)[C@H]([C@@H](C)O)NC(=O)c5csc(n5)[C@]3(CC2)NC(=O)[C@H](C)NC(=O)C(=C)NC(=O)[C@H](C)NC(=O)[C@H]([C@@H](C)CC)N[C@@H]2C=Cc3c([C@H](C)O)cc(nc3[C@H]2O)C(=O)O[C@@H]4C)n1)C(=O)NC(=CNC(=O)c1ccc(Cl)cc1)C(N)=O [RJS-09] | 0.12 to 0.25 (≈ 0.066 to 0.137 µM) | most activity | distinct precipitation | 0.25 to 0.5 (≈ 0.137 to 0.275 µM) | < 1 | 0.12 (≈ 0.066 µM) | 0.25 (≈ 0.137 µM) | < 0.001 | 0.25 (≈ 0.137 µM) | 0.002 (≈ 0.0011 µM) | 0.5 (≈ 0.275 µM) | 0.25 (≈ 0.137 µM) | > 64 | 0.25 (≈ 0.137 µM) | – | –
2 | C=C(NC(=O)C(=C)NC(=O)c1csc(C2=N[C@@H]3c4csc(n4)[C@H]4NC(=O)c5csc(n5)[C@H]([C@](C)(O)[C@@H](C)O)NC(=O)[C@H]5CSC(=N5)/C(=C/C)NC(=O)[C@H]([C@@H](C)O)NC(=O)c5csc(n5)[C@]3(CC2)NC(=O)[C@H](C)NC(=O)C(=C)NC(=O)[C@H](C)NC(=O)[C@H]([C@@H](C)CC)N[C@@H]2C=Cc3c([C@H](C)O)cc(nc3[C@H]2O)C(=O)O[C@@H]4C)n1)C(N)=O [Thiostrepton] | – | potent activity | distinct precipitation | – | – | – | – | – | – | – | – | – | – | – | distinct precipitation | VRE MIC values relative to VSE MIC values ([1]; impact of vancomycin resistance among enterococci): comparable; MIC [1]: 0.06 to 0.12 µg/mL (≈ 0.036 to 0.0721 µM); MIC [7]: ≤ 0.001 µg/mL; MIC (S. aureus isolates): 0.06 to 0.12 µg/mL (≈ 0.036 to 0.0721 µM); MIC values against MRSA relative to MSSA (S. aureus isolates; identical or within 2-fold, impact of methicillin resistance): ≤ 2 fold; Solubility pH 7.2 [3]: 3.0 (±0.2) μg/mL; MIC (E. faecium MMX 485 VRE; VRE): 0.06 µg/mL (≈ 0.036 µM); MIC [4]: 0.06 µg/mL (≈ 0.036 µM); MIC [5]: < 0.001 µg/mL; MIC (E. faecium MMX 708 VSE): 0.12 µg/mL (≈ 0.0721 µM); MIC (S. pyogenes ATCC 19615): < 0.001 µg/mL; MIC (S. aureus MMX 8088 MRSA; MRSA): 0.12 µg/mL (≈ 0.0721 µM); MIC (E. faecalis MMX 486 VRE; VRE): 0.12 µg/mL (≈ 0.0721 µM); MIC (E. coli ATCC 25922; E. coli ATCC 25922, CAMHB): >64 µg/mL; MIC (E. coli ATCC 25922; Escherichia coli, ATCC25922): > 64 µg/mL; MIC [6]: 0.12 µg/mL (≈ 0.0721 µM)
3 | C=C(NC(=O)c1csc(C2=N[C@@H]3c4csc(n4)[C@H]4NC(=O)c5csc(n5)[C@H]([C@](C)(O)[C@@H](C)O)NC(=O)C5CSC(=N5)/C(=C/C)NC(=O)[C@H]([C@@H](C)O)NC(=O)c5csc(n5)[C@]3(CC2)NC(=O)[C@H](C)NC(=O)C(=C)NC(=O)[C@H](C)NC(=O)[C@H]([C@@H](C)CC)N[C@@H]2C=Cc3c([C@H](C)O)cc(nc3[C@H]2O)C(=O)O[C@@H]4C)n1)C(=O)NC(=CNC(=O)c1cccc(/C=N/OC2O[C@H](CO)[C@@H](O)[C@H](O)[C@H]2O)c1)C(N)=O (stereo partly drawn) [RJS-16] | 8 to 16 (≈ 4.02 to 8.04 µM) | least activity | – | 16 (≈ 8.04 µM) | 11 (≈ 5.53 µM) | 8 (≈ 4.02 µM) | 16 (≈ 8.04 µM) | 0.25 (≈ 0.126 µM) | 16 (≈ 8.04 µM) | 0.25 (≈ 0.126 µM) | 16 (≈ 8.04 µM) | 16 (≈ 8.04 µM) | > 64 | 16 (≈ 8.04 µM) | distinct precipitation | MIC ([7]; across evaluated streptococci): 0.25 µg/mL (≈ 0.126 µM)
